Measurements as given in patent publication US20240254124A1, “AZAINDOLE ROCK INHIBITORS” (priority 2022, published 2024).

Tests used:
ROCK2 = ROCK2 (Homo sapiens (Human), UniProt O75116); test: ROCK2 inhibition assay (HotSpot, 33P-ATP); type: biochemical
[1] = 24 hour mouse pharmacokinetics; type: in vivo, B6SJLF1/J mice
Experimental: Groups 2, 3, 4, 6, and 8: Test article was dissolved in a minimal amount of DMSO (Groups 2, 4, 6, 8: 40-50 μL, Group 3: 100 μL), 0.5% methylcellulose was added to final volume, then solution was sonicated for 2 minutes.
Group 7: Test article was dissolved in 100 μL DMSO, saline was added to final volume, then solution was sonicated for 2 minutes.
Groups 1, 5: The test article was administered as a single dose via slow bolus intravenous administration into a lateral tail vein, with a 27G needle.
Groups 2, 4, 6, 7, 8: The test article was administered as a single dose directly to the stomach by oral gavage.
Group 3: The test article was administered as a single dose in two parts with an approximate 1-2-minute rest between due to volume administered.
Approximately 150 μL of blood was collected by tail nick for the first time point and then the maximal volume by cardiac stick for the second, terminal time point in each mouse. The plasma was spun and separated within 30 minutes of collection and stored frozen at −20° C. until shipment.
Prior to the terminal blood collection, CSF was collected. […] The resulting data is shown in Tables 13, 14, 15, 16 and 17 below.

hERG = hERG (Homo sapiens (Human), UniProt Q12809); test: biochemical
hERG, sequence (Q12809 whole entry): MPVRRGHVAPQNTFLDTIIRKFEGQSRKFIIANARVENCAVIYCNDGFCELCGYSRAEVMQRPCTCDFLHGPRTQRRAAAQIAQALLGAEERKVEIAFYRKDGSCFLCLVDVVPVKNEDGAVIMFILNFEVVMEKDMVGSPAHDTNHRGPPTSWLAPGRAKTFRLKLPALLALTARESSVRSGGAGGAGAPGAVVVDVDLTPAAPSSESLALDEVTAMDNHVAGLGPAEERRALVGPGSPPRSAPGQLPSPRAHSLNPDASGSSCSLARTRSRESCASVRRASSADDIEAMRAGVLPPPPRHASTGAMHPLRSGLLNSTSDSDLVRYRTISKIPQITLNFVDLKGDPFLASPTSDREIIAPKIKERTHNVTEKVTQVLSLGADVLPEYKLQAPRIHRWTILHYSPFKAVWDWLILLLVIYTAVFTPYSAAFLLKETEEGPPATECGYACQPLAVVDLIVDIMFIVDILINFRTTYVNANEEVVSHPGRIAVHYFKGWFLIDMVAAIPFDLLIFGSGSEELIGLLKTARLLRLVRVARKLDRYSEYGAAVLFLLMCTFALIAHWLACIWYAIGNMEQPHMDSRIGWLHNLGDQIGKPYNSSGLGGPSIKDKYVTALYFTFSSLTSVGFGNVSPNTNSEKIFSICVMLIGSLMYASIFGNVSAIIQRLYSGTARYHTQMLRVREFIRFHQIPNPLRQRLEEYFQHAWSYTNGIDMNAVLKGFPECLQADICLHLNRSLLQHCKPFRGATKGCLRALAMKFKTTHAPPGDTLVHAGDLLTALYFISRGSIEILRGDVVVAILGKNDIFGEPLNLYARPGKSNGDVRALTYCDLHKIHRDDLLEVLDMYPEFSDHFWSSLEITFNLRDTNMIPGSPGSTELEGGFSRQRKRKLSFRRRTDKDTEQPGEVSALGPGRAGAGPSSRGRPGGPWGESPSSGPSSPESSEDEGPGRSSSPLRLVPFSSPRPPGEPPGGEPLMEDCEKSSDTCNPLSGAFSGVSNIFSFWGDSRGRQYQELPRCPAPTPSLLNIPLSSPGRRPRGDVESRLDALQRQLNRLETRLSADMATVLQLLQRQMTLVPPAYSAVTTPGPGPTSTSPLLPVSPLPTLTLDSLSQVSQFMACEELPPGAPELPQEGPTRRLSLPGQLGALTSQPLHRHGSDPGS

[2] = 24 hour rat pharmacokinetics; settings: male
ROCK1 = ROCK1 (Homo sapiens (Human), UniProt Q13464); test: ROCK1 inhibition assay (HotSpot, 33P-ATP); type: biochemical; settings: Table 2A; 10 μM ATP
ROCK1, sequence (Q13464 whole entry): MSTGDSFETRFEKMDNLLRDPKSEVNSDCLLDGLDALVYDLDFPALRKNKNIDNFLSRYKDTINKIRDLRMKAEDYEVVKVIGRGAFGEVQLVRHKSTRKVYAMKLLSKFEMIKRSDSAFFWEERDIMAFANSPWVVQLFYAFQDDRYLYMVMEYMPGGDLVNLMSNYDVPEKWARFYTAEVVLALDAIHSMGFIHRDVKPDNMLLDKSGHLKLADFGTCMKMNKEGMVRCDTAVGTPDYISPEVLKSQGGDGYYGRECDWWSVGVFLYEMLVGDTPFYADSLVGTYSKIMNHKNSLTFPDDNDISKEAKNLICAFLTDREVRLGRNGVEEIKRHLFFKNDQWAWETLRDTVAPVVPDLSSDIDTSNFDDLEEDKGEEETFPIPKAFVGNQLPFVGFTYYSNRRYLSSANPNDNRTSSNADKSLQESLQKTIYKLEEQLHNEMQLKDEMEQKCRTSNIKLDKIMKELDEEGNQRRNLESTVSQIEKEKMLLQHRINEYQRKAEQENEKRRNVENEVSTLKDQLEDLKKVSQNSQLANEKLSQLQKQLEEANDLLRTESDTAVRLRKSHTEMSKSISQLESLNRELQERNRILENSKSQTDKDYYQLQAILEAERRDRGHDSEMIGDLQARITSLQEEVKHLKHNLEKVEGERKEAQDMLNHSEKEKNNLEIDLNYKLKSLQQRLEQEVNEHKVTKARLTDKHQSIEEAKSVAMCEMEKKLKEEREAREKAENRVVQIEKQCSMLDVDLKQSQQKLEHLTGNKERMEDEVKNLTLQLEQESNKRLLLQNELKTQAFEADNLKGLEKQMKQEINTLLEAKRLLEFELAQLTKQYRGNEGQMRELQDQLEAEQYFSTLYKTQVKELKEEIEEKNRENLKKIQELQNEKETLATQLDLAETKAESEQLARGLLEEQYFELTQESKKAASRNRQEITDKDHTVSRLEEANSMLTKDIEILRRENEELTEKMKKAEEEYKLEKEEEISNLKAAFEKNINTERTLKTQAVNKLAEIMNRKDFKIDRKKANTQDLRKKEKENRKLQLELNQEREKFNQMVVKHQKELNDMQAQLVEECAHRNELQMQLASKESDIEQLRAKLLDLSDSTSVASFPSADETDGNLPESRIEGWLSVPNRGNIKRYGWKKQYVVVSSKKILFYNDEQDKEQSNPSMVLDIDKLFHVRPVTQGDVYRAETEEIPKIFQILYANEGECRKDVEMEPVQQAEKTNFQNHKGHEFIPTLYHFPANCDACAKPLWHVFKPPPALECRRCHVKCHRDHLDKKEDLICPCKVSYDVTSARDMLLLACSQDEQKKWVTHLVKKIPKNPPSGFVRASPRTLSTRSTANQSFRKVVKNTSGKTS

PRKX = PRKX (Homo sapiens (Human), UniProt P51817); test: PRKX inhibition assay (HotSpot, 33P-ATP); type: biochemical; settings: Table 2B; 10 μM ATP; Compound 1 is geometric mean of multiple experiments
PRKX, sequence (P51817 whole entry): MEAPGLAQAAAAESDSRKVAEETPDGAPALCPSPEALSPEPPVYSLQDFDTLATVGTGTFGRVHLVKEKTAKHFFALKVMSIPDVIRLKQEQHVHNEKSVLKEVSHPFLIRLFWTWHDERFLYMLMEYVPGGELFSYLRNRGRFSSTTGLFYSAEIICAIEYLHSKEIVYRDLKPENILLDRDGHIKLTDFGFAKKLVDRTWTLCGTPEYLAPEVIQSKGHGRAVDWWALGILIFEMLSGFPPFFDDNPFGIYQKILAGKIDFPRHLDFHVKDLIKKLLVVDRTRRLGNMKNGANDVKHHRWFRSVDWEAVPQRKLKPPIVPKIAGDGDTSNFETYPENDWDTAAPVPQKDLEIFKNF
Experimental: (§1) Compounds as a powder were dissolved in dimethyl sulfoxide to make a 10 mM stock. […] The HotSpot kit employing ^33P-ATP was used with reactions conducted at 10 μM ATP for each tested enzyme. The percent activity relative to DMSO controls for each concentration was then fitted to a curve using GraphPad Prism to determine the IC50. […] Each experiment was run in the same lab with this procedure.

PKA = PKA (Homo sapiens (Human), UniProt P17612); test: PKA inhibition assay (HotSpot, 33P-ATP); type: biochemical; settings: Table 2B; 10 μM ATP; Compound 1 is geometric mean of multiple experiments
Experimental: as §1

ROCK2, sequence (O75116 whole entry): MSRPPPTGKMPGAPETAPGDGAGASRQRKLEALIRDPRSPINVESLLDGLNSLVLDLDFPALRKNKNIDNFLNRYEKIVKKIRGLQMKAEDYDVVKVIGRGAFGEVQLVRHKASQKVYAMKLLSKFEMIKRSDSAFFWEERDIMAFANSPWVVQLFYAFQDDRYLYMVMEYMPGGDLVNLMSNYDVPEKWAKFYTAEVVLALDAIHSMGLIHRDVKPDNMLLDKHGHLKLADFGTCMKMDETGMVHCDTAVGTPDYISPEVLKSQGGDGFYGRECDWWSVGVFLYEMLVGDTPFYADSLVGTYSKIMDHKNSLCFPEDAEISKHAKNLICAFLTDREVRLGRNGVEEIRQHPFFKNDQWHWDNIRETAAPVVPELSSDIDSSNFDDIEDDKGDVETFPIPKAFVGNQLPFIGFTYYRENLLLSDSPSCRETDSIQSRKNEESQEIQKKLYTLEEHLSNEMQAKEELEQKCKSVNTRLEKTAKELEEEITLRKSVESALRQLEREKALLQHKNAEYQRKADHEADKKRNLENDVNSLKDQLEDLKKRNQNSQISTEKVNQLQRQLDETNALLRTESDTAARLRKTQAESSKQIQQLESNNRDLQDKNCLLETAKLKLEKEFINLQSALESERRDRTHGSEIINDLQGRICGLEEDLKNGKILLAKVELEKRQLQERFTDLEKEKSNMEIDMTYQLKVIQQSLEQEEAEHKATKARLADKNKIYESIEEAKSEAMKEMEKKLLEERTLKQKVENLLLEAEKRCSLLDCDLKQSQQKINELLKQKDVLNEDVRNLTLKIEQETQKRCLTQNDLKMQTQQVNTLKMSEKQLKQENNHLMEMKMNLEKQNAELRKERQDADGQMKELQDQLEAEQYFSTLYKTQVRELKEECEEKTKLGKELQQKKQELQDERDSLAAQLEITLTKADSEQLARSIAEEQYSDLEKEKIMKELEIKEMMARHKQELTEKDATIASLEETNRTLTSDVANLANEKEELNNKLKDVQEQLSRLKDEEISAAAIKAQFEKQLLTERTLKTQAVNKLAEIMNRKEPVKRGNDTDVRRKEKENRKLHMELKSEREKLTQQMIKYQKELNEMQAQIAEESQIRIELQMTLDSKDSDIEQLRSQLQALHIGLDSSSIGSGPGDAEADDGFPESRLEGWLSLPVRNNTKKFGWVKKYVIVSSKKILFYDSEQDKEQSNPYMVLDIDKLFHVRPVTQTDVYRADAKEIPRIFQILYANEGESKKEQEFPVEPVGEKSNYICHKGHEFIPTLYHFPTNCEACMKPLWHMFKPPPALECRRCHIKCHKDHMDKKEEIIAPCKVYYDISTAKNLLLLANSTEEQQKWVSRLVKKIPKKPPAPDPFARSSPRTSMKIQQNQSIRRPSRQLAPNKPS

| SMILES | concentration required to inhibit half of ROCK2's activity, lower than Fasudil (ROCK2; head-to-head against Fasudil) | AUC0-t/D ([1]; IV 3 mg/kg, male) | AUC0-t/D ([1]; PO 10 mg/kg, female) | AUC0-t/D ([1]; PO 10 mg/kg, male) | AUC0-t/D ([1]; PO 100 mg/kg, male) | Ratio to 10 mg/kg Dose Level, AUC0-∞ ([1]; PO 100 mg/kg, male) | Kd (hERG) [nM] | AUC0-t/D ([2]; IV 3 mg/kg) | AUC0-t/D ([2]; PO 10 mg/kg) | IC50 (ROCK1) [nM] | IC50 (ROCK2; Table 2A, 10 μM ATP) [nM] | IC50 (PRKX) [nM] | IC50 (PKA) [nM] |
| --- | --- | --- | --- | --- | --- | --- | --- | --- | --- | --- | --- | --- | --- |
| Cn1c(C(=O)NCc2ccccc2F)cc2ccc(-c3cn[nH]c3)nc21 [Compound 1, N-(2-fluorobenzyl)-1-methyl-6-(1H-pyrazol-4-yl)-1H-pyrrolo[2,3-b]pyridine-2-carboxamide] | more than 50 fold | 3380 (h * ng/ml)/(mg/kg) | 567 (h * ng/ml)/(mg/kg) | 535 (h * ng/ml)/(mg/kg) | 441 (h * ng/ml)/(mg/kg) | 8.00 | > 100000 | 1541 (h * ng/ml)/(mg/kg) | 261 (h * ng/ml)/(mg/kg) | – | – | – | – |
| Cc1[nH]ncc1-c1ccc2cc(C(=O)NCc3c(Cl)cccc3C3(O)CC3)[nH]c2n1 [Compound 6, N-(2-chloro-6-(1-hydroxycyclopropyl)benzyl)-6-(5-methyl-1H-pyrazol-4-yl)-1H-pyrrolo[2,3-b]pyridine-2-carboxamide] | – | – | – | – | – | – | – | – | – | 35.6 | 10.1 | 32.3 | 103 |
